Non-standard residues stand in square brackets, D forms with d. Residues, ends and D or L forms follow the SMILES beside them. No end group written: not given here.

A short description of this data set: Blood Brain Barrier (BBB) penetration assay, ELISA of spinal fluid after I.P. injection. Format: in vivo, mice. The settings on record: for level of the polypeptide in mice brain following injection: I.P. 60 mg/kg in 5% mannitol, spinal fluid collected after 1 hour, ELISA, compared to 5% mannitol control. On the procedure: ICR female mice having initial body weight of 20-22 grams were used (Envigo).
A control group of 6 mice was injected intraperitoneally (I.P.) with 5% mannitol solution and another group of 6 mice was injected I.P. with the polypeptide dTCApFs (also termed herein Nerofe, at 60 mg/kg) in a 5% mannitol solution. Spinal fluid was collected after the injection (1 hour) and subjected to ELISA analysis of dTCApFs (Nerofe), as detailed below.
Mice were injected with 60 mg/kg D-amino acid dTCApFs (Nerofe), and cerebrospinal fluid (about 10 μl) and serum were collected after 1 hr, and frozen. A calibration curve was prepared by serial dilutions of the polypeptide in PBS (Biological industries, 02-023-5A) as noted in table 1 below.
Next, the cerebrospinal samples were thawed and kept on ice, and then diluted in 220 μl PBS. Sample loading was next performed by loading 100 μl duplicates of each sample and of the standard in a Maxisorp 96-wells plate (NUNC, F96 Maxisorp, 442404). The plate was sealed and incubated at 4° C. overnight with gentle shaking. The plate was washed by removing the liquid and washing the plate four (4) times using a multi-pipette or an automated washer with 300 μl 0.05% TW-20 (Amresco, 0777-1L) in PBS. The samples were blocked by diluting 5% BSA (MP biomedicals, 160069) in PBS. Then, 300 μl of the blocking buffer were loaded in each well and the plate was incubated at room temperature (R.T.) for 1 hour with gentle shaking. The Plates were washed again, as described above.
Detection was performed by diluting the first antibody according to table 1 below in diluent (0.05% TW-20, 0.1% BSA in PBS). Then, 100 μl of detection antibody were loaded into each well and the plate was incubated at R.T. for 2:00 hours with gentle shaking. The plate was washed again as detailed above. […]
Development was performed by adding 100 μl TMB (Milipore, ES001-500ML) to each well, and waiting for blue color development, then adding 100 μl 2N H2SO4 (Frutarom, 5552540). Plate reading was performed in a microplate reader, by checking the wells absorbance at 450 nm. […]
In general terms: ELISA stands for enzyme-linked immunosorbent assay.

In the case of `CC(C)C[C@@H](NC(=O)[C@H](NC(=O)[C@@H](CO)NC(=O)[C@H]1CCCN1C(=O)[C@@H](CC(C)C)NC(=O)[C@@H](Cc1ccccc1)NC(=O)[C@@H](Cc1ccccc1)NC(=O)[C@H](NC(=O)[C@@H](Cc1c[nH]c2ccccc12)NC(=O)[C@H](N)Cc1c[nH]c2ccccc12)[C@H](C)O)[C@H](C)O)C(=O)N[C@H](Cc1c[nH]c2ccccc12)C(=O)N[C@H](CCC(=O)O)C(=O)N[C@H](CCCNC(=N)N)C(=O)N[C@H](CCCCN)C(=O)O` [dTCApFs, Trp Trp Thr Phe Phe Leu Pro Ser Thr Leu Trp Glu Arg Lys] (H-[dW][dW][dT][dF][dF][dL][dP][dS][dT][dL][dW][dE][dR][dK]-OH; N-terminus and C-terminus assumed), the “level of the polypeptide in mice brain following injection” value is recorded as “dramatically increased”. The “penetration ability of the BBB” value (mice, I.P. 60 mg/kg) is recorded as “good penetration ability of the BBB”.

“WWTFFLPSTLWERK [L-amino acid polypeptide, Trp Trp Thr Phe Phe Leu Pro Ser Thr Leu Trp Glu Arg Lys, reference compound]”: the “level of the polypeptide in mice brain following injection” value is reported as “changed insignificantly”.
